These results are taken from PubChem BioAssay AID342 (DTP/NCI, 2004).

Several values for one entry are separate records, joined by “and”; a condition that tells them apart may be missing. Identical values can stand only once.

In the assay the test system is Swiss mice, Sarcoma 180 sc, mean tumor weight T/C. The assay is described as follows: NCI In Vivo Anticancer Drug Screen. Data for tumor model Sarcoma 180 (subcutaneous) in Swiss mice. The note with it: endpoint: mean tumor weight, higher = larger tumour. The gist of the method:
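Mice bearing transplanted tumors were treated with compound, and survival or tumor size was measured. Values are expressed as the treated-group measurement (T) divided by the vehicle-treated control measurement (C).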

For the molecule `C=CCNc1ccc(C)cc1`, the T/C reads like this: (dose: 30.0 mg/kg/injection, schedule: Q01DX007 (ip), vehicle: carboxymethylcellulose (CMC)) 72 % of control and 88 % of control; (dose: 55.0 mg/kg/injection, schedule: Q01DX007 (ip), vehicle: carboxymethylcellulose (CMC)) 86 % of control; (dose: 69.0 mg/kg/injection, schedule: Q01DX007 (ip), vehicle: carboxymethylcellulose (CMC)) 109 % of control; (dose: 83.0 mg/kg/injection, schedule: Q01DX007 (ip), vehicle: carboxymethylcellulose (CMC)) 76 % of control; (dose: 105.0 mg/kg/injection, schedule: Q01DX007 (ip), vehicle: carboxymethylcellulose (CMC)) 76 % of control and 83 % of control; (dose: 125.0 mg/kg/injection, schedule: Q01DX007 (ip), vehicle: carboxymethylcellulose (CMC)) 26 % of control. The T/C (dose: 157.0 mg/kg/injection, schedule: Q01DX007 (ip), vehicle: carboxymethylcellulose (CMC)) is 94 % of control.

On to `C[N+]1(CCC[N+]2(C)CC3C4C=CC(CC4)C3C2)CCOCC1` (configuration not stated), for which the T/C is, setting by setting: (dose: 7.75 mg/kg/injection, schedule: Q01DX007 (ip), vehicle: saline) 62 % of control; (dose: 15.5 mg/kg/injection, schedule: Q01DX007 (ip), vehicle: saline) 52 % of control; (dose: 31.0 mg/kg/injection, schedule: Q01DX007 (ip), vehicle: saline) 86 % of control; (dose: 62.0 mg/kg/injection, schedule: Q01DX007 (ip), vehicle: saline) 45 % of control.

As for `CC1=NCCc2c1cc1c([nH]c3ccccc31)c2C`, the T/C is, setting by setting: (dose: 25.0 mg/kg/injection, schedule: Q01DX007 (ip), vehicle: water) 108 % of control; (dose: 50.0 mg/kg/injection, schedule: Q01DX007 (ip), vehicle: water) 91 % of control; (dose: 100.0 mg/kg/injection, schedule: Q01DX007 (ip), vehicle: water) 72 % of control; (dose: 200.0 mg/kg/injection, schedule: Q01DX007 (ip), vehicle: water) 28 % of control.

Regarding `C[C@@H](N)[C@@H](O)c1ccccc1`, the T/C is, setting by setting: (dose: 3.13 mg/kg/injection, schedule: Q01DX007 (ip), vehicle: saline) 89 % of control; (dose: 6.25 mg/kg/injection, schedule: Q01DX007 (ip), vehicle: saline) 91 % of control; (dose: 12.5 mg/kg/injection, schedule: Q01DX007 (ip), vehicle: saline) 51 % of control; (dose: 25.0 mg/kg/injection, schedule: Q01DX007 (ip), vehicle: saline) 52 % of control.

As to `CCCCCCCCCCCCCCCCCC1=NCCN1CCN`, the T/C (dose: 22.0 mg/kg/injection, schedule: Q#A X014 (ip), vehicle: saline) was 74 % of control and 84 % of control; the T/C (dose: 50.0 mg/kg/injection, schedule: Q#A X014 (ip), vehicle: saline) was 33 % of control.

`[N-]=[N+]=[N-]`: the T/C is, setting by setting: (dose: 1.5 mg/kg/injection, schedule: Q01DX007 (ip), vehicle: carboxymethylcellulose (CMC)) 88 % of control; (dose: 3.0 mg/kg/injection, schedule: Q01DX007 (ip), vehicle: carboxymethylcellulose (CMC)) 61 % of control; (dose: 6.0 mg/kg/injection, schedule: Q01DX007 (ip), vehicle: carboxymethylcellulose (CMC)) 76 % of control; (dose: 12.0 mg/kg/injection, schedule: Q01DX007 (ip), vehicle: carboxymethylcellulose (CMC)) 69 % of control.

With `O=C(O)c1[nH]c(=O)[nH]c(=O)c1F`, the T/C runs as follows: (dose: 3.35 mg/kg/injection, schedule: Q#A X014 (ip), vehicle: methylcellulose (MC)) 62 % of control; (dose: 5.0 mg/kg/injection, schedule: Q#A X014 (ip), vehicle: methylcellulose (MC)) 49 % of control; (dose: 7.5 mg/kg/injection, schedule: Q#A X014 (ip), vehicle: methylcellulose (MC)) 46 % of control; (dose: 11.25 mg/kg/injection, schedule: Q#A X014 (ip), vehicle: methylcellulose (MC)) 22 % of control.

As for `O=P(N1CCCCCC1)(N1CC1)N1CC1`, the T/C is 91 % of control (dose: 1.0 mg/kg/injection, schedule: Q#A X014 (ip), vehicle: methylcellulose (MC)); 120 % of control (dose: 1.0 mg/kg/injection, schedule: Q#A X014 (ip), vehicle: saline); 86 % of control (dose: 1.5 mg/kg/injection, schedule: Q#A X014 (ip), vehicle: methylcellulose (MC)); 103 % of control (dose: 1.5 mg/kg/injection, schedule: Q#A X014 (ip), vehicle: saline); 65 % of control (dose: 2.0 mg/kg/injection, schedule: Q#A X014 (ip), vehicle: methylcellulose (MC)); 88 % of control (dose: 2.0 mg/kg/injection, schedule: Q#A X014 (ip), vehicle: saline). The T/C (dose: 3.0 mg/kg/injection, schedule: Q#A X014 (ip), vehicle: methylcellulose (MC)) was 61 % of control and the T/C (dose: 3.0 mg/kg/injection, schedule: Q#A X014 (ip), vehicle: saline) is 70 % of control.

Regarding `Nc1ncnc2c1ncn2C1OC(CO)CC1O` (configuration not stated), the T/C was 104 % of control (dose: 37.0 mg/kg/injection, schedule: Q01DX007 (ip), vehicle: carboxymethylcellulose (CMC)); 122 % of control (dose: 75.0 mg/kg/injection, schedule: Q01DX007 (ip), vehicle: carboxymethylcellulose (CMC)); 80 % of control (dose: 150.0 mg/kg/injection, schedule: Q01DX007 (ip), vehicle: carboxymethylcellulose (CMC)); 53 % of control (dose: 300.0 mg/kg/injection, schedule: Q01DX007 (ip), vehicle: carboxymethylcellulose (CMC)).

Consider `Clc1[nH]nc2ccccc12`, for which the T/C (dose: 42.0 mg/kg/injection, schedule: Q#A X014 (ip), vehicle: methylcellulose (MC)) was 62 % of control and 85 % of control (2×).

Consider `ON=C1c2cc(Cl)ccc2-c2ccc(Cl)cc21`, for which the T/C was 77 % of control (dose: 26.6 mg/kg/injection, schedule: Q01DX007 (ip), vehicle: carboxymethylcellulose (CMC)); 71 % of control (dose: 40.0 mg/kg/injection, schedule: Q01DX007 (ip), vehicle: carboxymethylcellulose (CMC)); 61 % of control (dose: 60.0 mg/kg/injection, schedule: Q01DX007 (ip), vehicle: carboxymethylcellulose (CMC)); 57 % of control (dose: 90.0 mg/kg/injection, schedule: Q01DX007 (ip), vehicle: carboxymethylcellulose (CMC)).

Turning to `O=C(O)O.[Cd]`, for the setting “dose: 5.0 mg/kg/injection, schedule: Q01DX007 (ip), vehicle: carboxymethylcellulose (CMC)”, the T/C is 69 % of control.

Consider `COc1cc2c(c(OC3OC(CO)C(O)C(O)C3O)c1)C(=O)CC(c1ccc(O)cc1)O2` (configuration not stated), for which the T/C runs as follows: (dose: 100.0 mg/kg/injection, schedule: Q01DX007 (ip), vehicle: other) 90 % of control; (dose: 200.0 mg/kg/injection, schedule: Q01DX007 (ip), vehicle: other) 71 % of control.

With `CNCCc1ccccc1`, the T/C (dose: 110.0 mg/kg/injection, schedule: Q01DX007 (ip), vehicle: saline) was 77 % of control.

In the case of `CN(C)c1ccc(/C=C/c2ccnc3ccccc23)cc1`, the T/C was 82 % of control (dose: 15.5 mg/kg/injection, schedule: Q01DX007 (ip), vehicle: water) and 86 % of control (dose: 62.0 mg/kg/injection, schedule: Q01DX007 (ip), vehicle: carboxymethylcellulose (CMC)).

In the case of `Clc1ccc2c(c1)Cc1cc(N=Cc3ccccc3Cl)ccc1-2`, the T/C (dose: 42.0 mg/kg/injection, schedule: Q01DX007 (ip), vehicle: other) is 77 % of control; the T/C (dose: 64.0 mg/kg/injection, schedule: Q01DX007 (ip), vehicle: other) was 108 % of control; the T/C (dose: 66.0 mg/kg/injection, schedule: Q01DX007 (ip), vehicle: saline) was 57 % of control; the T/C (dose: 99.0 mg/kg/injection, schedule: Q01DX007 (ip), vehicle: saline) is 52 % of control; the T/C (dose: 148.0 mg/kg/injection, schedule: Q01DX007 (ip), vehicle: saline) is 38 % of control; the T/C (dose: 222.0 mg/kg/injection, schedule: Q01DX007 (ip), vehicle: other) is 42 % of control and 46 % of control. Moreover, the T/C by setting is: (dose: 222.0 mg/kg/injection, schedule: Q01DX007 (ip), vehicle: saline) 31 % of control; (dose: 333.0 mg/kg/injection, schedule: Q01DX007 (ip), vehicle: other) 20 % of control and 40 % of control; (dose: 492.0 mg/kg/injection, schedule: Q01DX007 (ip), vehicle: carboxymethylcellulose (CMC)) 40 % of control; (dose: 500.0 mg/kg/injection, schedule: Q01DX007 (ip), vehicle: other) 22 % of control; (dose: 750.0 mg/kg/injection, schedule: Q01DX007 (ip), vehicle: carboxymethylcellulose (CMC)) 31 % of control; (dose: 750.0 mg/kg/injection, schedule: Q01DX007 (ip), vehicle: other) 20 % of control.

Turning to `CN=C(N)c1ccc(N=C(N)c2ccc(C(N)=Nc3ccc(C(N)=NC)cc3)cc2)cc1`, the T/C by setting is: (dose: 12.5 mg/kg/injection, schedule: Q01DX007 (ip), vehicle: carboxymethylcellulose (CMC)) 124 % of control; (dose: 25.0 mg/kg/injection, schedule: Q01DX007 (ip), vehicle: carboxymethylcellulose (CMC)) 86 % of control; (dose: 50.0 mg/kg/injection, schedule: Q01DX007 (ip), vehicle: carboxymethylcellulose (CMC)) 80 % of control.
